In PubChem BioAssay (NCI):
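A five-concentration, 48-hour dose response in 96-well plates underlies each endpoint, interpolated linearly between surrounding concentrations. GI50 = concentration required for 50% inhibition of growth. The concentration for full growth arrest is given as TGI.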

Key:
Test in all cases: growth of human tumour cells (NCI), 48 h
[1] = test system: UO-31 renal
[2] = test system: DU-145 prostate
[3] = test system: MALME-3M melanoma
[4] = test system: SNB-75 CNS
[5] = test system: SNB-19 CNS
[6] = test system: SF-268 CNS
[7] = test system: SF-295 CNS
[8] = test system: RXF 393 renal
[9] = test system: OVCAR-4 ovarian
[10] = test system: SN12C renal
[11] = test system: M14 melanoma
[12] = test system: ACHN renal
[13] = test system: UACC-62 melanoma
[14] = test system: NCI-H226 lung
[15] = test system: HS 578T breast
[16] = test system: RPMI-8226 leukemia
[17] = test system: MDA-MB-231 breast
[18] = test system: U251 CNS
[19] = test system: LOX IMVI melanoma
[20] = test system: A549 NSCLC
[21] = test system: TK-10 renal
[22] = test system: HL-60(TB) leukemia
[23] = test system: SK-MEL-2 melanoma
[24] = test system: 786-0 renal
[25] = test system: A498 renal
[26] = test system: MOLT-4 leukemia
[27] = test system: HT29 colon
[28] = test system: OVCAR-3 ovarian
[29] = test system: SF-539 CNS
[30] = test system: SW-620 colon
[31] = test system: COLO 205 colon
[32] = test system: OVCAR-5 ovarian
[33] = test system: EKVX NSCLC
[34] = test system: IGROV1 ovarian
[35] = test system: SK-MEL-28 melanoma
[36] = test system: OVCAR-8 ovarian
[37] = test system: CAKI-1 renal
[38] = test system: NCI/ADR-RES ovarian
[39] = test system: K-562 leukemia
[40] = test system: HCT-15 colon
[41] = test system: SR leukemia
[42] = test system: SK-OV-3 ovarian
[43] = test system: UACC-257 melanoma
[44] = test system: KM12 colon
[45] = test system: NCI-H460 lung
[46] = test system: T-47D breast
[47] = test system: CCRF-CEM leukemia
[48] = test system: HOP-62 NSCLC
[49] = test system: PC-3 prostate
[50] = test system: SK-MEL-5 melanoma
[51] = test system: MCF7 breast
[52] = test system: HCC-2998 colon
[53] = test system: BT-549 breast
[54] = test system: NCI-H23 lung
[55] = test system: HCT-116 colon
[56] = test system: MDA-MB-435
[57] = test system: HOP-92 NSCLC

## C=C(C=O)[C@@H]1CC[C@]2(CO)CC[C@]3(C)[C@H](CC[C@@H]4[C@@]5(C)CCCNC(C)(C)[C@@H]5CC[C@]43C)[C@@H]12
[1]
  GI50: 14.9 µM
  TGI: 38.7 µM
[2]
  GI50: 7.13 µM
  TGI: 20.3 µM
[3]
  GI50: 10.8 µM
  TGI: 26.4 µM
[4]
  GI50: 9.07 µM
  TGI: 61.8 µM
[5]
  GI50: 8.56 µM
  TGI: 21.3 µM
[6]
  GI50: 16.1 µM
  TGI: 50.8 µM
[7]
  GI50: 13.8 µM
  TGI: 27.6 µM
[8]
  GI50: 3.83 µM
  TGI: 16.3 µM
[9]
  GI50: 6.16 µM
  TGI: 23.2 µM
[10]
  GI50: 14 µM
  TGI: 35.2 µM
[11]
  GI50: 7.77 µM
  TGI: 23.3 µM
[12]
  GI50: 15 µM
  TGI: 31.2 µM
[13]
  GI50: 13.1 µM
  TGI: 27.9 µM
[14]
  GI50: 5.09 µM
  TGI: 23.6 µM
[15]
  GI50: 9.64 µM
  TGI: 50.6 µM
[16]
  GI50: 2.96 µM
  TGI: 13.9 µM
[17]
  GI50: 14 µM
  TGI: 31.5 µM
[18]
  GI50: 4.43 µM
  TGI: 17.8 µM
[19]
  GI50: 1.74 µM
  TGI: 3.3 µM
[20]
  GI50: 15.5 µM
  TGI: 46 µM
[21]
  GI50: 28.5 µM
  TGI: 69.9 µM
[22]
  GI50: 1.96 µM
  TGI: 4.36 µM
[23]
  GI50: 12 µM
  TGI: 27.2 µM
[24]
  GI50: 14.9 µM
  TGI: 32.3 µM
[25]
  GI50: 0.57 µM
  TGI: 93.6 µM
[26]
  GI50: 3.64 µM
  TGI: 16 µM
[27]
  GI50: 2.31 µM
  TGI: 5.95 µM
[28]
  GI50: 3.35 µM
  TGI: 11.9 µM
[29]
  GI50: 7.78 µM
  TGI: 20.4 µM
[30]
  GI50: 2.01 µM
  TGI: 5.52 µM
[31]
  GI50: 12.8 µM
  TGI: 29.4 µM
[32]
  GI50: 9.72 µM
  TGI: 23 µM
[33]
  GI50: 11.1 µM
  TGI: 30.8 µM
[34]
  GI50: 3.34 µM
  TGI: 13.1 µM
[35]
  GI50: 3.15 µM
  TGI: 12.6 µM
[36]
  GI50: 7.29 µM
  TGI: 78.8 µM
[37]
  GI50: 14.3 µM
  TGI: 31.8 µM
[38]
  GI50: 4.15 µM
  TGI: 23 µM
[39]
  GI50: 1.93 µM
  TGI: 5.44 µM
[40]
  GI50: 1.99 µM
  TGI: 7.4 µM
[41]
  GI50: 1.75 µM
  TGI: 3.74 µM
[42]
  GI50: 40 µM
  TGI: > 100 µM
[43]
  GI50: 11.3 µM
  TGI: 31.7 µM
[44]
  GI50: 3.01 µM
  TGI: 9.33 µM
[45]
  GI50: 11 µM
  TGI: 25.9 µM
[46]
  GI50: 2.76 µM
  TGI: 17.9 µM
[47]
  GI50: 2.21 µM
  TGI: 6.22 µM
[48]
  GI50: 14.6 µM
  TGI: 31.3 µM
[49]
  GI50: 2.91 µM
  TGI: 18.8 µM
[50]
  GI50: 10.3 µM
  TGI: 22.3 µM
[51]
  GI50: 1.65 µM
  TGI: 5.14 µM
[52]
  GI50: 1.91 µM
  TGI: 3.67 µM
[53]
  GI50: 8.94 µM
  TGI: 22.8 µM
[54]
  GI50: 6.16 µM
  TGI: 21.1 µM
[55]
  GI50: 1.8 µM
  TGI: 3.57 µM
[56]
  GI50: 4.8 µM
  TGI: 18.2 µM
[57]
  GI50: 2.12 µM
  TGI: 7.64 µM
